# Target: BACE1 (Homo sapiens, UniProt P56817)
# Assay: Cellular Aβ[…] secretion ELISA (SH-SY5Y APP695wt cells); IP-MS Aβ pattern
# Assay type: cell-based
# Chain of BACE1 (P56817 46-501): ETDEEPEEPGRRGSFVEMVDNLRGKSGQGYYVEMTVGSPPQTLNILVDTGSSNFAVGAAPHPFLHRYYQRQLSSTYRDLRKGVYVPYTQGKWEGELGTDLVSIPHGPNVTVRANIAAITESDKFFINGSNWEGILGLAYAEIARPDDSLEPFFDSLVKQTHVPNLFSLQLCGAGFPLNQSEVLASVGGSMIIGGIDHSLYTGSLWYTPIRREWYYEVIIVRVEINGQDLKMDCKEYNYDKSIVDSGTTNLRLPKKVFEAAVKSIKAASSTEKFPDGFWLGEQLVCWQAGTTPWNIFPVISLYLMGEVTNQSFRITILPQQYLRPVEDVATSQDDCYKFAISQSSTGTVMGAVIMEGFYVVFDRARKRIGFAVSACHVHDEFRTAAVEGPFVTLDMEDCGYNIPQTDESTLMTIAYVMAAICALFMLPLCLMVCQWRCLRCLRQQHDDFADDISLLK
substance,measurement,value
AZ-20,IC50,8.2 ± 1.4 nM
